Measured values published in US20170334899A1, “AMINO-SUBSTITUTED ISOTHIAZOLES” (Bayer Pharma Aktiengesellschaft, priority 2014, published 2017).

Tested on: human cervical tumor cell line HeLa (ATCC CCL-2)
Assay: SAC-Formation - Nocodazole-Induced Assay
Format: cell-based
Conditions: Homo sapiens, HeLa, 24 h, HeLa cells, nocodazole 0.1 μg/ml together with test compound, decrease of mitotic cells (phospho-histone H3 Ser10)
Summary of the method: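 HeLa cells, plated overnight, were treated 24 h at 37 °C with nocodazole (0.1 μg/ml final) plus test compound (0.005–20 μM, 0.5% DMSO) added at the same time. After fixation, anti-phospho-histone H3 Ser10 and Hoechst staining gave the mitotic cell fraction by imaging. Values came from four-parameter Hill fits.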

Row | SMILES | IC50
1 | Cc1nsc(Nc2cncc(C(F)(F)F)n2)c1C(=O)Nc1ccc(OCC2CCCN(C(=O)OC(C)(C)C)C2)nc1 (centres unmarked) [Example 166, tert-butyl 3-{[(5-{[(3-methyl-5-{[6-(trifluoromethyl)pyrazin-2-yl]amino}-1,2-thiazol-4-yl)carbonyl]amino}pyridin-2-yl)oxy]methyl}piperidine-1-carboxylate] | 52 nM
2 | Cc1nsc(Nc2cnc3ccccc3n2)c1C(=O)Nc1ccc(N2CCOCC2)nc1 [Example 169, 3-methyl-N-[6-(morpholin-4-yl)pyridin-3-yl]-5-(quinoxalin-2-ylamino)-1,2-thiazole-4-carboxamide] | 2500 nM
3 | Cc1nsc(Nc2ccc(C#N)cn2)c1C(=O)Nc1ccc(N[C@@H](C)C(=O)OC(C)(C)C)nc1 [Example 170, tert-butyl N-{5-[({5-[(5-cyanopyridin-2-yl)amino]-3-methyl-1,2-thiazol-4-yl}carbonyl)amino]pyridin-2-yl}alaninate] | 2300 nM
4 | Cc1nsc(Nc2ccc(C#N)cn2)c1C(=O)Nc1ccc(NC2CCCN(C(=O)OC(C)(C)C)C2)nc1 (centres unmarked) [Example 171, tert-butyt 3-({5-[({5-[(5-cyanopyridin-2-yl)amino]-3-methyl-1,2-thiazol-4-yl}carbonyl)amino]pyridin-2-yl}amino)piperidine-1-carboxylate] | 71 nM
5 | Cc1nsc(Nc2cnc3ccccc3n2)c1C(=O)Nc1ccc(NC2CC2)nc1 [Example 172, N-[6-(cyclopropylamino)pyridin-3-yl]-3-methyl-5-(quinoxalin-2-ylamino)-1,2-thiazole-4-carboxamide] | 3500 nM
6 | COc1ccc(NC(=O)c2c(C)nsc2Nc2ccc(C#N)cn2)c(N2CCOCC2)n1 [Example 173, 5-[(5-cyanopyridin-2-yl)amino]-N-[6-methoxy-2-(morpholin-4-yl)pyridin-3-yl]-3-methyl-1,2-thiazole-4-carboxamide] | 1900 nM

Other lines, results leading:

Row | IC50 | SMILES
7 | 61 nM | Cc1nsc(Nc2cnc(C(F)(F)F)cn2)c1C(=O)Nc1ccc(OC2CCN(CC(F)(F)F)CC2)c(F)c1 [Example 163, N-(3-fluoro-4-{[1-(2,2,2-trifluoroethyl)piperidin-4-yl]oxy}phenyl)-3-methyl-5-{[5-(trifluoromethyl)pyrazin-2-yl]amino}-1,2-thiazole-4-carboxamide]
8 | 84 nM | Cc1nsc(Nc2cnc(C(F)(F)F)cn2)c1C(=O)Nc1ccc(OC2CCN(CC(F)F)CC2)c(F)c1 [Example 164, N-(4-{[1-(2,2-difluoroethyl)piperidin-4-yl]oxy}-3-fluorophenyl)-3-methyl-5-{[5-(trifluoromethyl)pyrazin-2-yl]amino}-1,2-thiazole-4-carboxamide]
9 | 240 nM | Cc1nsc(Nc2cnc(C(F)(F)F)cn2)c1C(=O)Nc1ccc(C(=O)NC2CCN(CC(F)(F)F)CC2)cc1 [Example 165, 3-methyl-N-(4-{[1-(2,2,2-trifluoroethyl)piperidin-4-yl]carbamoyl}phenyl)-5-{[5-(trifluoromethyl)pyrazin-2-yl]amino}-1,2-thiazole-4-carboxamide]
10 | 91 nM | Cc1nsc(Nc2cncc(C(F)(F)F)n2)c1C(=O)Nc1ccc(C(=O)NC2CCN(CC(F)(F)F)CC2)cc1 [Example 167, 3-methyl-N-(4-{[1-(2,2,2-trifluoroethyl)piperidin-4-yl]carbamoyl}phenyl)-5-{[6-(trifluoromethyl)pyrazin-2-yl]amino}-1,2-thiazole-4-carboxamide]
11 | 17 nM | Cc1nsc(Nc2cncc(C(F)(F)F)n2)c1C(=O)Nc1ccc(F)c(OC2CCN(C(=O)OC(C)(C)C)CC2)c1 [Example 168, tert-butyl 4-(2-fluoro-5-{[(3-methyl-5-{[6-(trifluoromethyl)pyrazin-2-yl]amino}-1,2-thiazol-4-yl)carbonyl]amino}phenoxy)piperidine-1-carboxylate]
